From patent US20050124618A1, “Methods of modulating angiogenesis and cancer cell proliferation” (priority 2003, published 2005)
Entries after “also recorded” stand apart in the source; their conditions may differ.

Columns and labels:
[1] = test system: 20-HETE; conditions: cited from earlier work
[2] = test system: extensor digitorum longus (EDL) and tibialis anterior (TA) muscles; assay: Vessel density of EDL and TA muscles after 7 days of electrical stimulation; type: in vivo, rat
Experimental: Experimental protocols and tissue preparation: After a 24-h recovery period, the implanted stimulator was activated by momentary closure of the magnetic reed switch using a small hand-held magnet. […] Contractions of the extensor digitorum longus (EDL) and tibialis anterior (TA) muscles were automatically initiated at 9 AM each day and sustained for 8 h/day over a consecutive 7-day period. At the end of the stimulation period, the animals were euthanized by an overdose of pentobarbital sodium (100 mg/kg ip), and the EDL and TA muscles were harvested for analysis as previously described (Greene A S et al., Hypertension 15: 779-783, 1990; and Parmentier J H et al., Hypertension 37: 623-629, 2001).
Tissue harvest and morphological analysis of vessel density: The stimulated and contralateral muscles were removed, weighed, and rinsed in physiological salt solution. A 300-mg sample was taken from the rostral portion of the TA muscle and frozen in liquid nitrogen for Western blot (100 mg) and HPLC (200 mg) analysis for measurement of VEGF protein expression and 20-HETE formation, respectively. The remaining TA and EDL muscles were lightly fixed in a 0.25% formalin solution overnight. The muscles were sectioned via a manual microtome to a thickness of about 100 μm by securing the tendons and slicing parallel to the longitudinal orientation of the muscle fibers. From every animal, two slices of each EDL muscle and three slices of each TA muscle were made. The slices were than immersed for 2 h in a solution of 25 μg/ml rhodamine-labeled Griffonia simplicifolia I (GS-I) lectin (Sigma; St. Louis, Mo. (Greene A S et al., Hypertension 15: 779-783, 1990)). Immediately after this 2-h exposure to GS-I lectin, the muscles were rinsed in physiological solution. The rinsing procedure was repeated after 15 and 30 min, and the muscles were rinsed in physiological saline solution for 12 h (overnight, at 4° C.). On the next day, the slices were mounted on microscope slides with a water-soluble mounting medium consisting of toluene and acrylic resin (SP ACCU-MOUNT 280, Baxter Scientific).
The labeled sections were visualized using a video fluorescent microscope system (Olympus ULWD CD Plan, ×20 objective, 1.6 cm working distance and 0.4 numerical aperture) with epi-illumination, as previously described (Parmentier J H et al., Hypertension 37: 623-629, 2001). In the present study, 10-15 and 20-25 representative fields were selected for study from each EDL and TA muscle slice, respectively. Each field was converted to a digitized image (DT2801 Data Translation; Marlboro, Mass.) and stored as an 8-bit/pixel image file with a resolution of 512×512 pixels. Morphometric analysis of the scanned histochemical sections was done as previously described (Parmentier J H et al., Hypertension 37: 623-629, 2001).
Data analysis and statistics: For each muscle, the vessel counts of all the selected fields (10-15 scans×2 slices for each EDL muscle; 20-25 scans×3 slices for each TA muscle) were averaged to a single vessel density. Vessel density was expressed in terms of the mean number of vessel-grid intersections per microscope field (0.224 mm^2). For each experimental group, the measured vessel density and 20-HETE formation of the stimulated muscle was compared with its unstimulated counterpart as well as with age-matched controls. All values are presented as means±SE. The significance of differences in values measured in the same animal was evaluated using a two-factor ANOVA (drug×stimulation) with repeated measures on one factor (stimulation). Significant differences were further investigated using a post hoc test (Tukey's).

[3] = test system: rat cornea; assay: Rat cornea pocket angiogenesis assay (growth factor pellets); type: in vivo
Experimental: (i) Preparation of sustained-release polymer: Sustained-release polymer pellets were prepared by making a 1:1 mix of a 12% solution in ethanol of the polymer (Hydron polyhydroxyethylmethacrylate), with saline containing the growth factors. The growth factors bFGF, VEGF, and EGF were dissolved at a concentration of 125 ng/μl. […] 2 μl of these solutions were added to each pellet. Thus, a pellet containing 250 ng of a single growth factor was implanted at random in the right or left eye. The other eye was implanted with a pellet containing the same dose of growth factor+HET0016. In some rats the pellet contained VEGF alone and VEGF+DDMS. 20 μg of the stable 20-HETE agonist analog WIT003 was implanted in one eye to determine whether it induces angiogenesis. […] 9 μl of the 1:1 Hydron/treatment mixture was placed on the ends of 1.5-cm rods. Each pellet contained 250 ng of its respective growth factor. For bFGF we used sucralfate to stabilize and allow sustained release of this growth factor (Volkin D B et al., Biochim Biophys Acta 1993, 1203:18-26). After drying the pellets for 1 hour, they were ready to be implanted into the cornea of rats.
(ii) Pellet implantation: The rats were anesthetized IM with ketamine (80 mg/kg) and xylazine (10 mg/kg). The eyes were topically anesthetized with 0.5% proparacaine (Ophthetic, Alcon, Tex.) and the globes proptosed with a jeweler's forceps. Using an operating microscope, a central intrastromal linear keratotomy, approximately 1.5 mm in length, was performed with a surgical blade (Bard-Parker #11; Becton Dickinson, Franklin Lake, N.Y.) parallel to the insertion of the lateral rectus muscle. A curved iris spatula (No. 10093-13, Fine Science Tools, Belmont, Calif.) approximately 1.5 mm wide and 5 mm long was inserted under the lip of the incision and gently pushed through the stroma toward the temporal limbus of the eye. The distance between the limbus and the base of the pocket was kept at 1.0±0.1 mm. The pellet was advanced to the temporal end of the pocket. Antibiotic ointment (erythromycin) was applied to the anterior surface of the eye.
(iv) Quantitation of corneal neovascularization: Seven days after pellet implantation, the rats were deeply anesthetized as previously described with ketamine and xylazine. The left ventricle was cannulated and the animal was perfused with 20-25 ml saline through the left ventricle followed by 20-25 ml India ink (waterproof drawing ink, Sanford, Bellwood, Ill.). The eyes were marked for orientation, enucleated and placed in 4% formalin for 24 hours. The cornea was dissected free from the surrounding globe and underlying iris, bisected, and loosely mounted between two glass slides, thus gently flattening the cornea. These flat mounts were examined microscopically using a Nikon Diaphot Epi-fluor 2 microscope attached to a CCD video camera and the images were digitized and saved using a computer.
Neovascularization was determined by comparing total vessel length in the control and experimental eyes. Vessel length was determined by tracing each vessel from the limbus to the pellet. Total length is the sum of these values in pixels and was determined using conventional image analysis software (Sigma Scan Pro, SPSS, Chicago, Ill.)

[4] = chronic treatment, 7 days electrical stimulation

For `CCCCc1ccc(N=CNO)c(C)c1` [HET0016, N-hydroxy-N′-(4-butyl-2 methylphenyl) formamidine], the “ability to reduce 20-HETE levels in vivo” value [1] is given as “reduce 20-HETE levels in vivo”, the “effect on the increase in vessel density (angiogenesis) induced by electrical stimulation” value ([2]; 7 days, HET0016 2 mg kg−1 day−1, ABT 50 mg kg−1 day−1) is given as “completely blocked” and the “vessel density, EDL, unstimulated side” value ([2]; chronic treatment, 7 days) is given as 116.0±1.0 number of vessel intersections. For the same molecule, the “vessel density, TA, unstimulated side” value ([2]; chronic treatment, 7 days) was 105.7±4.9 number of vessel intersections, the “vessel density, EDL, stimulated side” value [2, 4] was 118.0±10.1 number of vessel intersections and the “vessel density, TA, stimulated side” value [2, 4] was 110.5±1.1 number of vessel intersections. For the same molecule, the “angiogenic response to inhibitor alone” value ([3]; 20 μg HET0016 or 10 μg DDMS per pellet, no growth factor) was “Neither HET0016 nor DDMS alone elicited a response different from saline”, the “effect on the angiogenic response to EGF” value ([3]; EGF 250 ng/pellet + 20 μg HET0016) was “drastically decreased the angiogenic response; also recorded: obliterated; also recorded: blocks the angiogenic response” and the “reduction of angiogenic responses to VEGF” value ([3]; VEGF 250 ng/pellet + 5 μg HET0016) was “about 50%”. For the same molecule, the “effect on the angiogenic response to VEGF” value ([3]; VEGF 250 ng/pellet + 20 μg HET0016, 7 days) was “almost completely abolished; also recorded: obliterated; also recorded: inhibit angiogenic responses to VEGF”, the “effect on the angiogenic response to VEGF” value ([3]; VEGF 250 ng/pellet + 40 μg HET0016) was “almost completely abolished” and the “effect on the angiogenic response to bFGF” value ([3]; bFGF 250 ng/pellet + 20 μg HET0016) was “drastically decreased the angiogenic response; also recorded: obliterated; also recorded: blocks the angiogenic response”.
